Laboratory results from the NIST ThermoML archive (doi:10.1021/je700260f).

Conditions: Liquid, Vibrating tube method

FC(C(F)(F)F)C(F)(F)F [1,1,1,2,3,3,3-heptafluoropropane]
Conditions	mass density [kg/m3]
323.14 K, 26341 kPa	1449.9
323.14 K, 26367 kPa	1450.1
323.14 K, 26395 kPa	1450.2
323.14 K, 26427 kPa	1450.3
323.14 K, 26451 kPa	1450.5
323.14 K, 26475 kPa	1450.5
323.14 K, 26513 kPa	1450.7
323.14 K, 26548 kPa	1450.8
323.14 K, 26575 kPa	1450.8
323.14 K, 26605 kPa	1451
323.14 K, 26630 kPa	1451.2
323.14 K, 26654 kPa	1451.3
323.14 K, 26689 kPa	1451.4
323.14 K, 26725 kPa	1451.6
323.14 K, 26749 kPa	1451.6
323.14 K, 26779 kPa	1451.8
323.14 K, 26810 kPa	1451.9
323.14 K, 26834 kPa	1451.9
323.14 K, 26866 kPa	1452.2
323.14 K, 26907 kPa	1452.2
323.14 K, 26931 kPa	1452.3
323.14 K, 26964 kPa	1452.5
323.14 K, 26991 kPa	1452.7
323.14 K, 27019 kPa	1452.7
323.14 K, 27049 kPa	1452.9
323.14 K, 27086 kPa	1452.9
323.14 K, 27111 kPa	1453.1
323.14 K, 27141 kPa	1453.2
323.14 K, 27170 kPa	1453.4
323.14 K, 27208 kPa	1453.4
323.14 K, 27239 kPa	1453.6
323.14 K, 27261 kPa	1453.7
323.14 K, 27301 kPa	1453.9
323.14 K, 27337 kPa	1453.9
323.14 K, 27364 kPa	1454.2
323.14 K, 27407 kPa	1454.4
323.14 K, 27446 kPa	1454.5
323.14 K, 29221 kPa	1461.5
323.14 K, 29254 kPa	1461.6
323.14 K, 29283 kPa	1461.7
323.14 K, 29320 kPa	1461.9
323.14 K, 29357 kPa	1462
323.14 K, 29386 kPa	1462.2
323.14 K, 29420 kPa	1462.2
323.14 K, 29450 kPa	1462.4
323.14 K, 29481 kPa	1462.5
323.14 K, 29512 kPa	1462.7
323.14 K, 29551 kPa	1462.8
323.14 K, 29581 kPa	1462.9
323.14 K, 29617 kPa	1463.1
323.14 K, 29647 kPa	1463.3
323.14 K, 29673 kPa	1463.3
323.14 K, 29712 kPa	1463.4
323.14 K, 30912 kPa	1468
323.14 K, 30939 kPa	1468.2
323.14 K, 30970 kPa	1468.1
323.14 K, 31016 kPa	1468.3
323.14 K, 31057 kPa	1468.4
323.14 K, 31085 kPa	1468.6
323.14 K, 31126 kPa	1468.7
323.14 K, 31158 kPa	1468.9
323.14 K, 31190 kPa	1468.9
323.14 K, 31227 kPa	1469.2
323.14 K, 31260 kPa	1469.2
323.14 K, 31289 kPa	1469.4
323.14 K, 31322 kPa	1469.5
323.14 K, 31350 kPa	1469.7
323.14 K, 31393 kPa	1469.8
323.14 K, 31427 kPa	1469.8
323.14 K, 31456 kPa	1469.9
323.14 K, 31496 kPa	1470.1
323.14 K, 31525 kPa	1470.2
323.14 K, 31560 kPa	1470.3
323.14 K, 31593 kPa	1470.5
323.14 K, 31631 kPa	1470.6
323.14 K, 31664 kPa	1470.7
323.14 K, 31692 kPa	1470.8
323.14 K, 31727 kPa	1470.8
323.14 K, 31759 kPa	1471.1
323.14 K, 31798 kPa	1471.2
323.14 K, 31833 kPa	1471.3
323.14 K, 31867 kPa	1471.5
323.14 K, 31900 kPa	1471.6
323.14 K, 31935 kPa	1471.8
323.14 K, 31970 kPa	1471.9
323.14 K, 32005 kPa	1472.1
323.14 K, 32035 kPa	1472.1
323.14 K, 32074 kPa	1472.2
323.14 K, 32106 kPa	1472.4
323.14 K, 32145 kPa	1472.5
323.14 K, 32183 kPa	1472.7
323.14 K, 32213 kPa	1472.9
323.14 K, 32256 kPa	1472.9
323.14 K, 32290 kPa	1473
323.14 K, 32334 kPa	1473.2
323.14 K, 32359 kPa	1473.2
323.14 K, 32392 kPa	1473.5
323.14 K, 32426 kPa	1473.5
323.14 K, 32453 kPa	1473.6
323.14 K, 32494 kPa	1473.7
323.14 K, 32530 kPa	1473.9
323.14 K, 32562 kPa	1474.1
323.14 K, 32595 kPa	1474.2
323.14 K, 32625 kPa	1474.2
323.14 K, 32718 kPa	1474.5
323.14 K, 32751 kPa	1474.7
323.14 K, 32788 kPa	1474.8
323.14 K, 32825 kPa	1475.1
323.14 K, 32856 kPa	1475.1
323.14 K, 32888 kPa	1475.2
323.14 K, 32921 kPa	1475.3
323.14 K, 32953 kPa	1475.5
323.14 K, 32985 kPa	1475.4
323.14 K, 33019 kPa	1475.7
323.14 K, 33051 kPa	1475.7
323.14 K, 33084 kPa	1475.8
323.14 K, 33112 kPa	1476.1
323.14 K, 33140 kPa	1476.1
323.14 K, 33174 kPa	1476.3
323.14 K, 33204 kPa	1476.4
323.14 K, 33237 kPa	1476.4
323.14 K, 33283 kPa	1476.6
323.14 K, 33320 kPa	1476.7
323.14 K, 33348 kPa	1476.8
323.14 K, 33380 kPa	1477
323.14 K, 33409 kPa	1477.2
323.14 K, 33451 kPa	1477.2
323.14 K, 33480 kPa	1477.5
323.14 K, 33527 kPa	1477.5
323.14 K, 33556 kPa	1477.6
323.14 K, 33594 kPa	1477.8
323.14 K, 33624 kPa	1477.9
323.14 K, 33659 kPa	1477.9
323.14 K, 33689 kPa	1477.9
323.14 K, 33733 kPa	1478.3
323.14 K, 33772 kPa	1478.3
323.14 K, 33801 kPa	1478.4
323.14 K, 33844 kPa	1478.5
323.14 K, 33873 kPa	1478.6
323.14 K, 33912 kPa	1478.8
323.14 K, 33947 kPa	1479
323.14 K, 33988 kPa	1479.1
323.14 K, 34019 kPa	1479.2
323.14 K, 34056 kPa	1479.3
323.14 K, 34088 kPa	1479.4
323.14 K, 34126 kPa	1479.7
323.14 K, 34164 kPa	1479.7
323.14 K, 34203 kPa	1479.9
323.14 K, 34254 kPa	1480
323.14 K, 34287 kPa	1480.1
323.14 K, 34318 kPa	1480.4
323.14 K, 34333 kPa	1480.4
323.14 K, 34347 kPa	1480.4
323.14 K, 34355 kPa	1480.4
323.14 K, 34365 kPa	1480.4
323.14 K, 34376 kPa	1480.5
323.14 K, 34382 kPa	1480.5
323.15 K, 2690 kPa	1295.1
323.15 K, 2710 kPa	1295.4
323.15 K, 2730 kPa	1295.6
323.15 K, 2750 kPa	1295.9
323.15 K, 2770 kPa	1296.1
323.15 K, 2790 kPa	1296.3
323.15 K, 2810 kPa	1296.6
323.15 K, 2860 kPa	1297.2
323.15 K, 3610 kPa	1305.8
323.15 K, 5700 kPa	1326.8
323.15 K, 5730 kPa	1327.1
323.15 K, 5750 kPa	1327.2
323.15 K, 5780 kPa	1327.6
323.15 K, 5810 kPa	1327.8
323.15 K, 5830 kPa	1328.1
323.15 K, 5860 kPa	1328.3
323.15 K, 5890 kPa	1328.7
323.15 K, 5920 kPa	1329.1
323.15 K, 5940 kPa	1329
323.15 K, 7941 kPa	1346.2
323.15 K, 7982 kPa	1346.7
323.15 K, 8005 kPa	1346.8
323.15 K, 8337 kPa	1349.4
323.15 K, 8351 kPa	1349.6
323.15 K, 8369 kPa	1349.8
323.15 K, 8474 kPa	1350.5
323.15 K, 8495 kPa	1350.7
323.15 K, 8516 kPa	1350.8
323.15 K, 8532 kPa	1351
323.15 K, 8553 kPa	1351.1
323.15 K, 8569 kPa	1351.3
323.15 K, 8597 kPa	1351.5
323.15 K, 8616 kPa	1351.8
323.15 K, 8637 kPa	1351.8
323.15 K, 8653 kPa	1351.9
323.15 K, 8674 kPa	1352.2
323.15 K, 8690 kPa	1352.3
323.15 K, 8713 kPa	1352.5
323.15 K, 8731 kPa	1352.6
323.15 K, 8753 kPa	1352.6
323.15 K, 8776 kPa	1352.9
323.15 K, 8792 kPa	1353.1
323.15 K, 8817 kPa	1353.1
323.15 K, 8836 kPa	1353.4
323.15 K, 8858 kPa	1353.5
323.15 K, 8877 kPa	1353.6
323.15 K, 8898 kPa	1353.8
323.15 K, 9724 kPa	1360
